Source: patent EP4603105A1, “PHARMACEUTICAL COMPOSITION CONTAINING CYCLIC COMPOUND HAVING SELECTIVE KRAS INHIBITORY EFFECT AGAINST HRAS AND NRAS” (CHUGAI SEIYAKU KABUSHIKI KAISHA, priority 2022, dated 2024)
Read-outs that look alike come from different tables or passages of the source. Where a SMILES comes first, the peptide text is derived from it. Bridges are numbered along the chain shown (N, C = ends). [ ]: non-standard residue; d: D form. The star is where a group is joined. hPhe(3-Cl-4-CF3) = N[C@@H](CCc1ccc(C(F)(F)F)c(Cl)c1)C(=O)O; NPrPhe(4-CF3) = CCCN[C@@H](Cc1ccc(C(F)(F)F)cc1)C(=O)O; NEtPhe(4-CF3) = CCN[C@@H](Cc1ccc(C(F)(F)F)cc1)C(=O)O; NMeGly(cPent) = CN[C@H](C(=O)O)C1CCCC1; NMeD = CN[C@@H](CC(=O)O)C(=O)O; NMeL = CN[C@@H](CC(C)C)C(=O)O; NMeNva = CCC[C@H](NC)C(=O)O; Ac6c = NC1(C(=O)O)CCCCC1; Morpholide = C1CN(*)CCO1; NMeA = CN[C@@H](C)C(=O)O; Ac5c = NC1(C(=O)O)CCCC1; Aze = O=C(O)[C@@H]1CCN1; Ac4c = NC1(C(=O)O)CCC1; NPrGly = CCCNCC(=O)O; Sar = CNCC(=O)O

Tests used:
HRAS wild-type protein = HRAS wild-type protein (Homo sapiens, UniProt P01112); assay: Binding to HRAS by surface plasmon resonance (SPR), KD and KD ratio to KRAS
In short: (§1)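 Measured at 30°C: SPR with GDP-loaded, E. coli-expressed biotin-Avi RAS captured (~100–300 RU), ascending 75 s compound injections, HBS pH 7.4 with GDP, MgCl2, 4% DMSO. KD from 1:1 fit.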

[1] = molecular target: GDP-bound NRAS wild-type protein (Homo sapiens, UniProt P01111); assay: Binding to NRAS by surface plasmon resonance (SPR), KD and KD ratio to KRAS
In short: as §1

[2] = tested on: human lung cancer strain NCI-H441; assay type: cell-based
In short: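 Signal came from […] measured per well once the reagent was added. Beforehand, cells were cultured at 37°C and 5% carbon dioxide on a compound series serially diluted in dimethyl sulfoxide.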

[3] = ratio of KD for HRAS wild-type protein to KD for KRAS
[4] = ratio of KD for GDP-bound NRAS wild-type protein to KD for KRAS
[5] = ratio of the KD value with respect to HRAS wild-type protein to the KD value with respect to KRAS
[6] = ratio of the KD value with respect to GDP-bound NRAS wild-type protein to the KD value with respect to KRAS

Chain of GDP-bound NRAS wild-type protein (P01111 whole entry): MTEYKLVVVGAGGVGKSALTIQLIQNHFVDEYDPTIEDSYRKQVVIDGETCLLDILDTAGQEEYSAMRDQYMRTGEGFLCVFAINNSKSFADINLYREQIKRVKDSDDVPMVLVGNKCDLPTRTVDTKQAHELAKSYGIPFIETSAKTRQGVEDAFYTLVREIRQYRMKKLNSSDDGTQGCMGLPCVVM
Chain of HRAS wild-type protein (P01112 whole entry): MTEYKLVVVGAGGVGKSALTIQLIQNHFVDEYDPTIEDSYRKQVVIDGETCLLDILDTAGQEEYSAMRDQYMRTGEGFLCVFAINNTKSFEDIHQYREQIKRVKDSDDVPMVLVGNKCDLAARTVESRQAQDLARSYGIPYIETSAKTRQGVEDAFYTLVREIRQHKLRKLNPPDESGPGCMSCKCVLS

SMILES	IC50 [2] [nM]	HRAS /KRAS (HRAS wild-type protein; [3])	NRAS /KRAS [1, 4]	IC50 ([2]; NCI-H441 cells, 4 days, CellTiter-Glo, read-out: NCl-H441 IC50) [nM]	HRAS /KRAS (HRAS wild-type protein; [5])	NRAS /KRAS [1, 6]	HRAS /KRAS (HRAS wild-type protein; ratio of KD value for HRAS wild-type protein to KD value for KRAS (SPR))	NRAS /KRAS ([1]; ratio of KD value for GDP-bound NRAS wild-type protein to KD value for KRAS (SPR))
CCC[C@H]1C(=O)N[C@@H]([C@@H](C)CC)C(=O)N(C)CC(=O)N(C)[C@H]2C/C=C\CCN(C2=O)[C@@H](Cc2ccc(C(F)(F)F)cc2)C(=O)N(C)CC(=O)N[C@@H](CCc2ccc(C3CC3)c(OC)c2)C(=O)N2C[C@H](OCC)C[C@H]2C(=O)NC2(CC(C)(C)C2)C(=O)N(C)[C@@H](C2CCCC2)C(=O)N(C)[C@H](C(=O)N(C)C)CC(=O)N1C [PP2853]	–	A (a compound having 10 or more and less than 20 is denoted as A)	A (a compound having 10 or more and less than 20 is denoted as A)	40.2	–	–	–	–
CCC[C@H]1C(=O)N[C@@H]([C@@H](C)CC)C(=O)N(CCC)CC(=O)N(C)CC(=O)N(CCC)[C@@H](Cc2ccc(C(F)(F)F)cc2)C(=O)N(C)CC(=O)N[C@@H](CCc2ccc(C(F)(F)F)c(Cl)c2)C(=O)N2CCC[C@H]2C(=O)NC2(CCC2)C(=O)N(C)[C@@H](C2CCCC2)C(=O)N(C)[C@H](C(=O)N2CCOCC2)CC(=O)N1C [PP1947] ([NMeNva]I[NPrGly][Sar][NPrPhe(4-CF3)][Sar][hPhe(3-Cl-4-CF3)]P[Ac4c][NMeGly(cPent)][NMeD]-Morpholide; lactam N-11)	22	–	–	–	B (a compound having 3 or more and less than 10 is denoted as B)	B (a compound having 3 or more and less than 10 is denoted as B)	–	–
CC[C@H](C)[C@@H]1NC(=O)[C@H](CC)N(C)C(=O)C[C@@H](C(=O)N(CC)CC)N(C)C(=O)[C@H](C2CCCC2)N(C)C(=O)C2(CC(C)(C)C2)NC(=O)[C@@H]2C[C@H](C)CN2C(=O)[C@H](CCc2ccc(C(F)(F)F)c(OC)c2)NC(=O)CN(C)C(=O)[C@H](Cc2ccc(C)cc2)N2CC/C=C\C[C@@H](C2=O)N(C)C(=O)CN(C)C1=O [PP1839]	24.3	–	–	–	–	–	B (a compound having 3 or more and less than 10 is denoted as B)	A (a compound having 10 or more and less than 20 is denoted as A)

Second part, led by results:

IC50 [2] [nM]	SMILES	HRAS /KRAS (HRAS wild-type protein; [3])	NRAS /KRAS [1, 4]	IC50 ([2]; NCI-H441 cells, 4 days, CellTiter-Glo, read-out: NCl-H441 IC50) [nM]	HRAS /KRAS (HRAS wild-type protein; [5])	NRAS /KRAS [1, 6]	HRAS /KRAS (HRAS wild-type protein; ratio of KD value for HRAS wild-type protein to KD value for KRAS (SPR))	NRAS /KRAS ([1]; ratio of KD value for GDP-bound NRAS wild-type protein to KD value for KRAS (SPR))
45.7	CCO[C@@H]1C[C@H]2C(=O)NC3(CCC3)C(=O)N(C)[C@@H](C3CCCC3)C(=O)N(CCC3CCC3)[C@H](C(=O)N3CCOCC3)CC(=O)N(C)[C@@H](CC(C)C)C(=O)N[C@@H]([C@@H](C)CC)C(=O)N(C)CC(=O)N(C)[C@H]3CCCCN(C3=O)[C@@H](Cc3ccc(C(F)(F)F)cc3)C(=O)N(C)CC(=O)N[C@@H](CCc3cc(F)c(C(F)(F)F)c(F)c3)C(=O)N2C1 [PP0650]	–	–	–	B (a compound having 3 or more and less than 10 is denoted as B)	C (A compound having a KD ratio of 0.1 or more and less than 3 is denoted as C)	–	–
17.1	CC[C@H](C)[C@@H]1NC(=O)[C@H](CC(C)C)N(C)C(=O)C[C@@H](C(=O)N2CCOCC2)N(C)C(=O)[C@H](C2CCCC2)N(C)C(=O)C2(CCCCC2)NC(=O)[C@@H]2CCCN2C(=O)[C@H](CCc2ccc(C(F)(F)F)c(Cl)c2)NC(=O)CN(C)C(=O)[C@H](Cc2ccc(C(F)(F)F)cc2)N(CC)C(=O)[C@@H]2CCN2C(=O)[C@H](C)N(C)C1=O [PP0222] ([NMeL]I[NMeA][Aze][NEtPhe(4-CF3)][Sar][hPhe(3-Cl-4-CF3)]P[Ac6c][NMeGly(cPent)][NMeD]-Morpholide; lactam N-11)	C (A compound having a KD ratio of 0.1 or more and less than 3 is denoted as C)	C (A compound having a KD ratio of 0.1 or more and less than 3 is denoted as C)	–	–	–	–	–
378	CCO[C@@H]1C[C@H]2C(=O)NC3(CCC3)C(=O)N(C)[C@@H](C3CCCC3)C(=O)N(CC)[C@H](C(=O)N3CCOCC3)CC(=O)N(C)[C@@H](COC)C(=O)N[C@@H]([C@@H](C)CC)C(=O)N(C)CC(=O)N(C)[C@H]3CCCCCN(C3=O)[C@@H](Cc3ccc(C(F)(F)F)cc3)C(=O)N(C)CC(=O)N[C@@H](CCc3cc(F)c(C(F)(F)F)c(F)c3)C(=O)N2C1 [PP0946]	B (a compound having 3 or more and less than 10 is denoted as B)	A (a compound having 10 or more and less than 20 is denoted as A)	–	–	–	–	–
2.8	CCCN1C(=O)CN(C)C(=O)CNC(=O)[C@H]([C@@H](C)CC)NC(=O)[C@H](CC(C)C)N(C)C(=O)C[C@@H](C(=O)N2CCOCC2)N(C)C(=O)[C@H](C2CCCC2)N(C)C(=O)C2(CCCC2)NC(=O)[C@@H]2CCCN2C(=O)[C@H](CCc2ccc(C(F)(F)F)c(Cl)c2)NC(=O)CN(C)C(=O)[C@@H]1Cc1ccc(C(F)(F)F)cc1 [PP0155] ([NMeL]IG[Sar][NPrPhe(4-CF3)][Sar][hPhe(3-Cl-4-CF3)]P[Ac5c][NMeGly(cPent)][NMeD]-Morpholide; lactam N-11)	C (A compound having a KD ratio of 0.1 or more and less than 3 is denoted as C)	B (a compound having 3 or more and less than 10 is denoted as B)	–	–	–	–	–
